# Experimental data from patent publication US10501421B1, “Substituted benzimidazoles as modulators of Ras signaling” (VANDERBILT UNIVERSITY, priority 2017, dated 2019).
# Counter-ions that a name gives are not always drawn.
# Key:
# [1] = target: Ras GEF SOS (Son of Sevenless) (Homo sapiens, UniProt Q07889); test: SOS-mediated nucleotide exchange on Ras (BODIPY-GDP fluorescence); format: biochemical; details: SOS-mediated exchange of BODIPY-GDP for GTP on Ras
# Method in brief: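 Ras loaded with BODIPY-GDP was mixed in buffer with test compound, then GTP and SOS. Fluorescence change from labeled GDP/GTP exchange was followed over time, and rates came from single-exponential fits. EC50 came from a four-parameter fit of mean rate against compound concentration.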
# Son of Sevenless (SOS) = target: T1, Son of Sevenless (SOS) (Homo sapiens, UniProt Q07889); test: Binding to SOS, fluorescence polarization anisotropy (FPA) probe displacement; details: displacement of FITC-conjugated probe (Example 285), affinity calculated from IC50
# T1 sequence (Q07889 564-1049 limits assumed): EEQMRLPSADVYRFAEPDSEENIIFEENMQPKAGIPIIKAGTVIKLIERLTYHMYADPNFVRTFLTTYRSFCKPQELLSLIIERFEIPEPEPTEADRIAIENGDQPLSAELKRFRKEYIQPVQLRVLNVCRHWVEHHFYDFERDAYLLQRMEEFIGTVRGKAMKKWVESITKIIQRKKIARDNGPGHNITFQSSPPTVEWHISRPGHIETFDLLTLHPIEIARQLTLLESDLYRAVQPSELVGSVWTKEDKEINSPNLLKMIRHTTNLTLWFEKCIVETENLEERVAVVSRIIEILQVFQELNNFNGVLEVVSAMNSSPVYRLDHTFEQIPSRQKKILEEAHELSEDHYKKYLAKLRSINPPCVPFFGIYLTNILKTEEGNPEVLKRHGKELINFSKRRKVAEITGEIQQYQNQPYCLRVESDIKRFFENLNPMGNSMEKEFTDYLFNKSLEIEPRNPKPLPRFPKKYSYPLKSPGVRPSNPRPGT
# Method in brief: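 A FITC-conjugated probe compound was incubated with SOS in buffer, and its displacement was tracked as a change in fluorescence anisotropy across a test-compound dose range. IC50 came from a four-parameter variable-slope fit, and binding affinity was calculated from it.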
# Chain of Ras GEF SOS (Son of Sevenless) (P01112 1-166 partner limits assumed, one chain of several): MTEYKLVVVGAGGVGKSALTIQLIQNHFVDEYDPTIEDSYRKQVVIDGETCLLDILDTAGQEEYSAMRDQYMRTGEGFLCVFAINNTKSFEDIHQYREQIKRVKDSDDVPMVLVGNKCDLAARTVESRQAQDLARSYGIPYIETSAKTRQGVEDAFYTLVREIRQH
SMILES,EC50 [1] [nM],Ki (Son of Sevenless (SOS)) [nM]
"Cc1cc2c(nc(N3CCNCC3)n2Cc2ccc(F)c(Cl)c2)c(-c2ccnn2-c2ccc(Br)cc2)c1C [Example 172, 4-(1-(4-bromophenyl)-1H-pyrazol-5-yl)-1-(3-chloro-4-fluorobenzyl)-5,6-dimethyl-2-(piperazin-1-yl)-1H-benzo[d]imidazole trifluoroacetate]",1000 to 5000,1000 to 5000
"Cc1cc(Cn2c(NCC3CNC3)nc3c(N4CCN(C)CC4)cc(Cl)cc32)cc(C)c1F [Example 301, N-(azetidin-3-ylmethyl)-6-chloro-1-(4-fluoro-3,5-dimethylbenzyl)-4-(4-methylpiperazin-1-yl)-1H-benzo[d]imidazol-2-amine]",1000 to 5000,< 500
"Cc1cc2nc(NCCN)n(Cc3cccc(Br)c3)c2cc1C [Example 35, N^1-(1-(3-bromobenzyl)-5,6-dimethyl-1H-benzo[d]imidazol-2-yl)ethane-1,2-diamine trifluoroacetate]",1000 to 5000,1000 to 5000
"Cc1cc(OC2CCNCC2)c2nc(N3CCNCC3)n(Cc3cc(C)c(F)c(C)c3)c2c1 [Example 315, 1-(4-fluoro-3,5-dimethylbenzyl)-6-methyl-2-(piperazin-1-yl)-4-(piperidin-4-yloxy)-1H-benzo[d]imidazole]",< 1000,1000 to 5000
"Cc1cc(Cn2c(N3CCNCC3)nc3c(CC(=O)O)cc(Cl)cc32)cc(C)c1F [Example 310, 2-(6-chloro-1-(4-fluoro-3,5-dimethylbenzyl)-2-(piperazin-1-yl)-1H-benzo[d]imidazol-4-yl)acetic acid]",< 1000,500 to 1000
"Clc1ccc(Cn2c(N3CCNCC3)nc3ncccc32)cc1 [Example 251, 1-(4-chlorobenzyl)-2-(piperazin-1-yl)-1H-imidazo[4,5-b]pyridine]",30000 to 100000,> 5000
"OCc1cc(Cl)cc2c1nc(N1CCNCC1)n2Cc1ccc(F)c(Cl)c1 [Example 278, [6-chloro-1-[(3-chloro-4-fluorophenyl)methyl]-2-piperazin-1-ylbenzimidazol-4-yl]methanol]",< 1000,1000 to 5000
"Cc1cc(CN(C)C)c2ncn(Cc3ccc(F)c(Cl)c3)c2c1 [Example 145, 1-(1-(3-chloro-4-fluorobenzyl)-6-methyl-1H-benzo[d]imidazol-4-yl)-N,N-dimethylmethanamine trifluoroacetate]",30000 to 100000,> 5000
"Cc1cc(Cn2c(NCC3CNC3)nc3c(C4=CCNCC4)cc(Cl)cc32)cc(C)c1F [Example 302, N-(azetidin-3-ylmethyl)-6-chloro-1-(4-fluoro-3,5-dimethylbenzyl)-4-(1,2,3,6-tetrahydropyridin-4-yl)-1H-benzo[d]imidazol-2-amine]",< 1000,500 to 1000
"Cc1cc2nc(NCCN)n(Cc3ccc(F)c(Cl)c3)c2cc1C [Example 17, N1-(1-(3-chloro-4-fluorobenzyl)-5,6-dimethyl-1H-benzo[d]imidazol-2-yl)ethane-1,2-diamine trifluoroacetate]",1000 to 5000,1000 to 5000
"Cc1cc2nc(N3CC(CN)C3)n(Cc3ccc(F)c(Cl)c3)c2cc1C [Example 288, (1-(1-(3-chloro-4-fluorobenzyl)-5,6-dimethyl-1H-benzo[d]imidazol-2-yl)azetidin-3-yl)methanamine]",< 1000,1000 to 5000
"Cc1cc(Cn2c(N3CCNCC3)nc3c(C(N)C(=O)O)cc(Cl)cc32)cc(C)c1F (centres unmarked) [Example 282, 2-amino-2-[6-chloro-1-[(4-fluoro-3,5-dimethylphenyl)methyl]-2-piperazin-1-ylbenzimidazol-4-yl]acetic acid]",1000 to 5000,500 to 1000
"NCCNCc1cc(Cl)cc2c1nc(N1CCNCC1)n2Cc1ccc(F)c(Cl)c1 [Example 137, N^1-((6-chloro-1-(3-chloro-4-fluorobenzyl)-2-(piperazin-1-yl)-1H-benzo[d]imidazol-4-yl)methyl)ethane-1,2-diamine trifluoroacetate]",1000 to 5000,1000 to 5000
"Cc1cc(OCCN2CCN(C)CC2)c2nc(N3CCNCC3)n(Cc3cc(C)c(F)c(C)c3)c2c1 [Example 201, 1-(4-fluoro-3,5-dimethylbenzyl)-6-methyl-4-(2-(4-methylpiperazin-1-yl)ethoxy)-2-(piperazin-1-yl)-1H-benzo[d]imidazole]",< 1000,500 to 1000
"NC(CO)c1cc(Cl)cc2c1nc(N1CCNCC1)n2Cc1ccc(F)c(Cl)c1 (centres unmarked) [Example 283, 2-amino-2-[6-chloro-1-[(3-chloro-4-fluorophenyl)methyl]-2-piperazin-1-ylbenzimidazol-4-yl]ethanol]",5000 to 30000,> 5000
"Cc1cc2nc(N3CCCC(N)C3)n(Cc3ccc(F)c(Cl)c3)c2cc1C (centres unmarked) [Example 290, 1-(1-(3-chloro-4-fluorobenzyl)-5,6-dimethyl-1H-benzo[d]imidazol-2-yl)piperidin-3-amine]",1000 to 5000,1000 to 5000
"CCNCc1c(C)c(C)cc2c1nc(NCCN)n2Cc1ccc(F)c(Cl)c1 [Example 147, N^1-(1-(3-chloro-4-fluorobenzyl)-4-((ethylamino)methyl)-5,6-dimethyl-1H-benzo[d]imidazol-2-yl)ethane-1,2-diamine trifluoroacetate]",< 1000,1000 to 5000
"Cc1cc2nc(NCCN)n(Cc3ccc(F)c(Cl)c3)c2cc1Br [Example 64, N^1-(6-bromo-1-(3-chloro-4-fluorobenzyl)-5-methyl-1H-benzo[d]imidazol-2-yl)ethane-1,2-diamine trifluoroacetate]",1000 to 5000,500 to 1000
"Cc1cc(-c2c(C)nn(C)c2C)c2nc(N3CCNCC3)n(Cc3ccc(F)c(Cl)c3)c2c1 [Example 121, 1-(3-chloro-4-fluorobenzyl)-6-methyl-2-(piperazin-1-yl)-4-(1,3,5-trimethyl-1H-pyrazol-4-yl)-1H-benzo[d]imidazole trifluoroacetate]",< 1000,< 500
"Cc1cc2nc(N3CCNCC3)n(Cc3ccc(Br)c(Cl)c3)c2cc1C [Example 39, 1-(4-bromo-3-chlorobenzyl)-5,6-dimethyl-2-(piperazin-1-yl)-1H-benzo[d]imidazole trifluoroacetate]",1000 to 5000,> 5000
"Cc1cc(Cn2c(N3CCNCC3)nc3c(N4CCOCC4)cc(Cl)cc32)cc(C)c1F [Example 312, 4-(6-chloro-1-(4-fluoro-3,5-dimethylbenzyl)-2-(piperazin-1-yl)-1H-benzo[d]imidazol-4-yl)morpholine]",< 1000,< 500
"Cc1cc2c(nc(N3CC(CN)C3)n2Cc2ccc(F)c(C)c2)c(-c2ccccc2F)n1 [Example 216, (1-(1-(4-fluoro-3-methylbenzyl)-4-(2-fluorophenyl)-6-methyl-1H-imidazo[4,5-c]pyridin-2-yl)azetidin-3-yl)methanamine]",< 1000,500 to 1000
"CCCN1CC[C@@H](C(=O)c2ccccc2)C1c1cc(Cl)cc2c1nc(N1CCNCC1)n2Cc1cc(C)c(F)c(C)c1 (stereo in doubt) [Example 149, ((2S,3R)-2-(6-chloro-1-(4-fluoro-3,5-dimethylbenzyl)-2-(piperazin-1-yl)-1H-benzo[d]imidazol-4-yl)-1-propylpyrrolidin-3-yl)(phenyl)methanone trifluoroacetate]",5000 to 30000,1000 to 5000
"Cc1cc2c(nc(N3CCNCC3)n2Cc2ccc(F)c(C)c2)c(-c2ccccc2C(C)C)n1 [Example 219, 1-(4-fluoro-3-methylbenzyl)-4-(2-isopropylphenyl)-6-methyl-2-(piperazin-1-yl)-1H-imidazo[4,5-c]pyridine]",5000 to 30000,> 5000
"Cc1cc(C2=CCNCC2)c2nc(N3CCNCC3)n(Cc3cc(C)c(F)c(C)c3)c2c1 [Example 103, 1-(4-fluoro-3,5-dimethylbenzyl)-6-methyl-2-(piperazin-1-yl)-4-(1,2,3,6-tetrahydropyridin-4-yl)-1H-benzo[d]imidazole]",1000 to 5000,< 500
"Cc1cc2c(nc(N3CCNCC3)n2Cc2ccc(F)c(C)c2)c(CNC(C)C)n1 [Example 233, N-((1-(4-fluoro-3-methylbenzyl)-6-methyl-2-(piperazin-1-yl)-1H-imidazo[4,5-c]pyridin-4-yl)methyl)propan-2-amine]",5000 to 30000,> 5000
"Cc1cc2nc(NCCO)n(Cc3ccc(F)c(Cl)c3)c2cc1C [Example 26, 2-((1-(3-chloro-4-fluorobenzyl)-5,6-dimethyl-1H-benzo[d]imidazol-2-yl)amino)ethan-1-ol]",5000 to 30000,> 5000
"Cc1cc2c(nc(NCCN)n2Cc2ccc(F)c(C)c2)c(-c2ccccc2C)n1 [Example 224, N^1-(1-(4-fluoro-3-methylbenzyl)-6-methyl-4-(o-tolyl)-1H-imidazo[4,5-c]pyridin-2-yl)ethane-1,2-diamine]",5000 to 30000,> 5000
